Values quoted from earlier work as cited in patent publication US7010431B2, “Method for effecting computer implemented decision-support in the selection of the drug therapy of patients having a viral disease” (F. Hoffman-LaRoche Ltd., priority 2000, dated 2006).
Where two headings read alike, the source gives them in different places.

What was measured:
[1] = tested on: HIV reverse transcriptase (RT) substitutions; parameters: key: 0 (low resistance); 3 (high resistance)
[2] = tested on: HIV protease (P) substitutions; parameters: key: 0 (low resistance); 3 (high resistance)
[3] = substitution 48 V, drug level 100

For `Nc1ccn([C@@H]2CS[C@H](CO)O2)c(=O)n1` [3TC], the “resistance @ level” value ([1]; substitution 69SS + 215, drug level 100) is given as 2.

For `Nc1nc(NC2CC2)c2ncn([C@H]3C=C[C@@H](CO)C3)c2n1` [ABC], the “resistance @ level” value ([1]; substitution 184 + two of (41, 67, 70, 210, 215, 219), drug level 10000) is given as 2.

In the case of `CC(C)CN(C[C@@H](O)[C@H](Cc1ccccc1)NC(=O)O[C@H]1CCOC1)S(=O)(=O)c1ccc(N)cc1` [AMP], the “resistance @ level” value ([2]; substitution 90M/I, drug level 10000) is listed as 1.

For `Cc1cn([C@H]2C=C[C@@H](CO)O2)c(=O)[nH]c1=O` [D4T], the “resistance @ level” value ([1]; substitution three of (41, 67, 70, 210, 215, 219), drug level 100) is given as 1.

In the case of `CC(C)(C)NC(=O)[C@@H]1C[C@@H]2CCCC[C@@H]2CN1C[C@@H](O)[C@H](Cc1ccccc1)NC(=O)[C@H](CC(N)=O)NC(=O)c1ccc2ccccc2n1` [FTV], the “resistance @ level” value [2, 3] is listed as 1.

For `CC(C)(C)NC(=O)[C@@H]1CN(Cc2cccnc2)CCN1C[C@@H](O)C[C@@H](Cc1ccccc1)C(=O)N[C@H]1c2ccccc2C[C@H]1O` [IND], the “resistance @ level” value [2, 3] is given as 0 and the “resistance @ level” value ([2]; substitution 82A/F/T/S, drug level 100) is given as 1.

In the case of `Cc1c(O)cccc1C(=O)N[C@@H](CSc1ccccc1)[C@H](O)CN1C[C@H]2CCCC[C@H]2C[C@H]1C(=O)NC(C)(C)C` [NFV], the “resistance @ level” value ([2]; substitution 84 + 90 + 46, drug level 100) is listed as 3.

In the case of `Cc1ccnc2c1NC(=O)c1cccnc1N2C1CC1` [NVP], the “resistance @ level” value ([1]; substitution 236, drug level 100) is given as 0.

In the case of `Cc1cn([C@H]2C[C@H](N=[N+]=[N-])[C@@H](CO)O2)c(=O)[nH]c1=O` [ZDV], the “resistance @ level” value ([1]; substitution 215Y/F + 41, drug level 100) is given as 3.
